Experiment: Gamma irradiation dosing studies, naproxen assay and degradants
Type: physicochemical

Naproxen Assay Average (Control (0 kGy)): 99.07 % w/w
Naproxen Assay Relative to Control (Control (0 kGy)): 100.00
Naproxen Assay Average (gamma dose 5 kGy): 96.38 % w/w
Naproxen Assay Relative to Control (gamma dose 5 kGy): 97.28
Naproxen Assay Average (gamma dose 10 kGy): 100.82 % w/w
Naproxen Assay Relative to Control (gamma dose 10 kGy): 101.77
Naproxen Assay Average (gamma dose 15 kGy): 100.44 % w/w
Naproxen Assay Average (gamma dose 25 kGy): 100.08 % w/w
Naproxen Assay Average (gamma dose 30 kGy): 100.47 % w/w
Naproxen Assay Average (gamma dose 40 kGy): 99.14 % w/w
Naproxen Assay Relative to Control (gamma dose 40 kGy): 100.07
Naproxen Assay Average (gamma dose 50 kGy): 99.49 % w/w
Naproxen Assay Relative to Control (gamma dose 50 kGy): 100.42
SMILES: COc1ccc2cc([C@H](C)C(=O)O)ccc2c1 [Naproxen (API), naproxen]

— patent publication US20040105778A1, “Gamma irradiation of solid nanoparticulate active agents” (Elan Pharma International Limited, priority 2002, published 2004)
